# Results reported in patent US20250017874A1, “PHARMACEUTICAL COMPOSITIONS FOR USE IN REDUCING HYPERPIGMENTATION” (Caliway Biopharmaceuticals Co., Ltd., priority 2023, published 2025).
# Read-outs that look alike come from different tables or passages of the source.
# Columns and labels:
# B16-F10 cells [1] = assay: In vitro efficacy test: melanin content after α-MSH induction (Example 3); type: cell-based, mouse
# Procedure: Alpha-melanocyte-stimulating hormone (α-MSH) is a peptide hormone capable of inducing melanin production. In this study, the effects of 4-[(E)-2-(3,5-dihydroxyphenyl)ethenyl]benzene-1,3-diol samples (having different concentrations of 4-[(E)-2-(3,5-dihydroxyphenyl)ethenyl]benzene-1,3-diol) on inhibition of melanin production were investigated.
# B16-F10 cells were seeded in a 96-well plate at a density of 1×10^5 cells/well and cultured for 24 hours. The cells were then incubated with 0.1 μM α-MSH for 24 hours to include melanin production. The 4-[(E)-2-(3,5-dihydroxyphenyl)ethenyl]benzene-1,3-diol samples with different concentrations were then added to the cultured cells, which were cultured for an additional 24 hours. No α-MSH was used for the vehicle control group.
# After the cells were washed once with 1 mL of 1×PBS, add 300 μL of 1×Trypsin-EDTA, they were placed in a 37° C. incubator for 5 minutes. Finally, 1 mL of DMEM was added to the cells, and the number of cells were counted by Trypan blue staining.
# Cell suspension was centrifuged at 1500 g for 5 minutes at room temperature, followed by supernatant removal and air-dry of the pellet for 15 minutes. 1 N NaOH (containing 10% DMSO) was added to break up the pellet, followed by shaking by ultrasonic waves for 30 minutes and heating in a water bath at 80° C. for 1.5 hours. After cooling down, the suspension was taken and measured for absorbance at 405 nm. Results were calculated by deducting the reagent blank from the absorbance value at 405 nm and divided by the average absorbance value of the α-MSH Group.
# HRM-2 mice = assay: In vivo efficacy: skin melanin content after UVB irradiation, different administration routes (Example 4A)
# Source text: The experiment tested a total of 20 mice using conventional diets in the adaptation period, the induction period, and the test period. After 7 days of adaptation, the mice were randomly divided into a control group and a UVB-c group according to body weight and body weight changes, so that no statistical difference in average body weight and body weight changes were noticeable among the groups. The UVB-c group was subjected to 150 mJ/cm^2/day of UVB irradiation with a frequency of irradiating the back of the mice three times a week.
# Injection frequency was once a week, three times in total, with an average injection area of 6 cm^2 skin each time. The IM01—Topical group and the color cream group were administered by smearing once a day for a total of 21 days. […] During the treatment period, the backs of the mice were irradiated with 150 mJ/cm^2/day of UVB three times a week until sacrificed. It should be noted that the timing of UVB exposure and drug administration were staggered.
# After sacrificing the mice on day 22, the skin of treatment area was collected and subjected to heat extraction with 0.4 mL NaOH for 1 hour. […] The experimental data were expressed as mean±standard deviation (n=3-5), using Student's t-test analysis, #p<0.05, ##p<0.01 compared with control group; *p<0.05, **p<0.01 compared with UVB-c group.
# UVB-irradiated mice skin = assay: In vivo efficacy: skin melanin after UVB irradiation, intradermal injection or topical administration (Example 4B/4C); conditions: for Melanin Mean ± SD (UVB group = 100.0): treatment period 3 weeks
# Source text: The IM01 formulation was investigated for in vivo efficacy via intradermal injection, either twice a week (IM01-ID/L) or once a day (IM01-ID/H). [table] The IM01 formulation was investigated for in vivo efficacy via topical administration (IM01-T), following the study design provided in Table 16 below. [table]
# B16-F10 cells [2] = assay: In vitro melanin content versus arbutin and hydroquinone (Example 6); type: cell-based, mouse
# Procedure: Except the vehicle group, cells of the other groups were cultured with α-MSH for 24 hours first. The compositions for investigation (see Tables 19 and 20) were then added to the culture medium and the cells were further cultured for 24 hours. The rest of the experimental operation process was similar to that described in Example 3. […] [table] [table]
# B16-F10 cell line [3] = assay: In vitro whitening efficacy: melanin content (Example 7); type: cell-based, mouse
# Source text: (§1) Table 23 below lists the study design for evaluating EC50 values of IM01, which contains 4-[(E)-2-(3,5-dihydroxyphenyl)ethenyl]benzene-1,3-diol.
# (§2) Table 25 below lists the study design for evaluating EC50 values of IM01, which contains 4-[(E)-2-(3,5-dihydroxyphenyl)ethenyl]benzene-1,3-diol.
# B16-F10 cell line [4] = type: cell-based, mouse; conditions: for Relative cell viability (%): mouse
# Source text: as §1, §2
# [5] = IM01-ID/H: ID, 23 mg/mL, once a day
# [6] = IM01-ID/L: ID, 23 mg/mL, twice a week
# [7] = IM01-T: topical, 45 mg/mL, once a day
smiles,measurement,setting,value
"Oc1cc(O)cc(/C=C/c2ccc(O)cc2O)c1 [IM01, 4-[(E)-2-(3,5-dihydroxyphenyl)ethenyl]benzene-1,3-diol]",Melanin production compared with vehicle group (without α-MSH),"B16-F10 cells [1]; IM01-C4, IM01-C5 and IM01-C6 groups (22.6, 32, 64 ppm)",lower than that of the vehicle group
same,EC50,"B16-F10 cells [1]; Mus musculus, B16-F10, printed as equal to 15.2 ppm",62 µM
same,Melanin Content Inhibition Ability (%) Mean,B16-F10 cells [1]; TA 8 ppm (IM01-C1),20.1%
same,Melanin content (%) Mean,"B16-F10 cells [1]; TA 8 ppm (IM01-C1), α-MSH 0.1 μM 24 h then TA 24 h, relative to α-MSH control",79.9%
same,Melanin Content Inhibition Ability (%) Mean,B16-F10 cells [1]; TA 11.3 ppm (IM01-C2),41.1%
same,Melanin content (%) Mean,"B16-F10 cells [1]; TA 11.3 ppm (IM01-C2), α-MSH 24 h then TA 24 h",58.9%
same,Melanin Content Inhibition Ability (%) Mean,B16-F10 cells [1]; TA 16 ppm (IM01-C3),56.8%
same,Melanin content (%) Mean,"B16-F10 cells [1]; TA 16 ppm (IM01-C3), α-MSH 24 h then TA 24 h",43.2%
same,Melanin Content Inhibition Ability (%) Mean,B16-F10 cells [1]; TA 22.6 ppm (IM01-C4),66.7%
same,Melanin content (%) Mean,"B16-F10 cells [1]; TA 22.6 ppm (IM01-C4), α-MSH 24 h then TA 24 h",33.3%
same,Melanin Content Inhibition Ability (%) Mean,B16-F10 cells [1]; TA 32 ppm (IM01-C5),74%
same,Melanin content (%) Mean,"B16-F10 cells [1]; TA 32 ppm (IM01-C5), α-MSH 24 h then TA 24 h",26.0%
same,Melanin Content Inhibition Ability (%) Mean,B16-F10 cells [1]; TA 64 ppm (IM01-C6),84.6%
same,Melanin content (%) Mean,"B16-F10 cells [1]; TA 64 ppm (IM01-C6), α-MSH 24 h then TA 24 h",15.4%
same,EC50 (melanin content),B16-F10 cells [1]; α-MSH 24 h then TA 24 h,around 15.2 ppm
same,Skin color compared with UVB-c group,"HRM-2 mice; IM01-ID group and IM01-Topical group, intradermal injection or smearing",whiter and brighter than that of the UVB-c group
same,Melanin level lower than the UVB-c group by,"HRM-2 mice; IM01-ID group, intradermal, p<0.01",33.6%
same,Percentage change of melanin Mean ± SD (% of UVB-c),"HRM-2 mice; IM01-ID: intradermal, 20 mg/mL, 0.5 mg/cm^2, once a week",−33.6 ± 6.0 % of UVB-c
same,Melanin Content Mean ± SD (% of UVB-c),"HRM-2 mice; IM01-ID: intradermal, 20 mg/mL, 0.5 mg/cm^2, once a week, three times, skin collected day 22",66.4 ± 6.0 % of UVB-c
same,Melanin level lower than the UVB-c group by,"HRM-2 mice; IM01-Topical group, p<0.05",30.6%
same,Percentage change of melanin Mean ± SD (% of UVB-c),"HRM-2 mice; IM01-Topical: 20 mg/mL, 0.4-0.5 mg/cm^2, once a day",−30.6 ± 7.6 % of UVB-c
same,Melanin Content Mean ± SD (% of UVB-c),"HRM-2 mice; IM01-Topical: 20 mg/mL, 0.4-0.5 mg/cm^2, once a day for 21 days, day 22",69.4 ± 7.6 % of UVB-c
same,Reduction of melanin production,UVB-irradiated mice skin; [5],23.1%
same,Melanin Mean ± SD (UVB group = 100.0),UVB-irradiated mice skin; [5],76.9 ± 12.7
same,Reduction of melanin production,UVB-irradiated mice skin; [6],13.9%
same,Melanin Mean ± SD (UVB group = 100.0),UVB-irradiated mice skin; [6],86.1 ± 14.5
same,Reduction of melanin production,UVB-irradiated mice skin; [7],21.4%
same,Melanin Mean ± SD (UVB group = 100.0),UVB-irradiated mice skin; [7],79.6 ± 12.5
same,Effect in reducing melanin compared with Arbutin (450 μM or 900 μM) and hydroquinone (120 μM),B16-F10 cells [2]; 120 μM,better than that of the whitening agent Arbutin
same,Melanin content compared with vehicle group (no α-MSH induction),B16-F10 cells [2]; 120 μM,even lower than that of the vehicle group
same,Melanin content (%) Mean ± SD,"B16-F10 cells [2]; TA 30 μM, α-MSH 24 hr + TA 24 hr, Table 22 experiment",84.6 ± 3.6%
same,Melanin content (%) Mean ± SD,"B16-F10 cells [2]; TA 60 μM, Table 22 experiment",52.8 ± 3.8%
same,Melanin content (%) Mean ± SD,"B16-F10 cells [2]; TA 60 μM, α-MSH 24 hr + TA 24 hr, Table 21 experiment",47.6 ± 3.4%
same,Melanin content (%) Mean ± SD,"B16-F10 cells [2]; TA 120 μM, Table 21 experiment",26.2 ± 2.4%
same,Melanin content (%) Mean ± SD,"B16-F10 cells [2]; TA 120 μM, Table 22 experiment",33.9 ± 1.4%
same,Melanin content (%) Mean ± SD,"B16-F10 cells [2]; TA 180 μM, Table 22 experiment",11.7 ± 2.3%
same,EC50,"B16-F10 cell line [3]; Mus musculus, B16-F10, α-MSH 24 hr + TA 24 hr, 4-256 μM, read-out: EC50 value (reduction of melanin levels induced by α-MSH)",~41.2 µM
same,Melanin content (%),"B16-F10 cell line [3]; TA 4 μM, α-MSH 24 hr + TA 24 hr, Table 24",90.2 ± 6.1%
same,Melanin content (%),"B16-F10 cell line [3]; TA 8 μM, Table 24",83.2 ± 6.9%
same,Melanin content (%),"B16-F10 cell line [3]; TA 16 μM, Table 24",81.8 ± 4.5%
same,Melanin content (%),"B16-F10 cell line [3]; TA 32 μM, Table 24",67.7 ± 7.1%
same,Melanin content (%),"B16-F10 cell line [3]; TA 60 μM (/L of IM01 and HQ), HQ vehicle DDW, Table 26",51.7 ± 2.6%
same,Melanin content (%),"B16-F10 cell line [3]; TA 64 μM, Table 24",43.0 ± 4.3%
same,Melanin content (%),"B16-F10 cell line [3]; TA 120 μM (/H of IM01 and HQ), HQ vehicle DDW, Table 26",37.7 ± 0.4%
same,Melanin content (%),"B16-F10 cell line [3]; TA 128 μM, Table 24",36.1 ± 2.9%
same,Melanin content (%),"B16-F10 cell line [3]; TA 181 μM, Table 24",34.8 ±3.5%
same,Melanin content (%),"B16-F10 cell line [3]; TA 256 μM, Table 24",25.9 ± 1.5%
same,Melanin inhibition activity compared with arbutin,"B16-F10 cell line [3]; Table 25 concentrations, FIG. 7C",much greater than arbutin
same,Cytotoxicity,B16-F10 cell line [4],low cytotoxicity
same,Relative cell viability (%),B16-F10 cell line [4]; 8 μM,98.4 ± 2.0%
same,Relative cell viability (%),B16-F10 cell line [4]; 16 μM,96.7 ± 2.4%
same,Relative cell viability (%),B16-F10 cell line [4]; 32 μM,98.7 ± 2.2%
same,Relative cell viability (%),B16-F10 cell line [4]; 60 μM,88.5 ± 1.4%
same,Relative cell viability (%),B16-F10 cell line [4]; 64 μM,93.0 ± 1.0%
same,Relative cell viability (%),B16-F10 cell line [4]; 120 μM,84.9 ± 0.4%
same,Relative cell viability (%),B16-F10 cell line [4]; 128 μM,89.8 ± 3.7%
same,Relative cell viability (%),B16-F10 cell line [4]; 181 μM,79.9 ± 5.6%
same,Relative cell viability (%),B16-F10 cell line [4]; 256 μM,74.6 ± 7.0%
